According to the OPERA property sets (Mansouri et al. 2018):
Peptide text beside a SMILES is read from it. * marks the point of attachment. NHtBu = CC(C)(C)N*

Compared with `NCCN1CCCC1`, `NCCCN1CCN(CCCN)CC1` is lower in logP: 0.08 for the first, -1.43 for the second.

Going from `CC(C)Nc1nc(NC(C)C)nc(SC(F)F)n1` to `CNc1nc(NC)nc(SC(F)F)n1`, the logP falls from 4.25 to 2.31.

First: CCOC(=O)c1ccc(NC(=O)N(C)OC)cc1
Second: CON(C)C(=O)Nc1ccc([N+](=O)[O-])cc1
The logP of the first is higher: 2.24 for the first, 1.74 for the second.

First: CCCCOC(=O)c1ccc(S(N)(=O)=O)cc1
Second: CCCCCCOC(=O)c1ccc(O)cc1
The logP of the first is lower: 2.34 for the first, 4.35 for the second.

Compared with `O=C(O)c1cccc(Cl)c1`, `Nc1cccc(Cl)c1` is lower in logP: 2.68 for the first, 1.88 for the second.

First: COc1cc([N+](=O)[O-])c(OC)cc1CC(C)N (stereo unspecified)
Second: COc1cc(C(C)(C)C)c(OC)cc1CC(C)N (stereo unspecified)
The logP of the first is lower: 1.74 for the first, 3.91 for the second.

First: CCCCCCCN(C)/N=N/c1ccc(C(N)=O)cc1
Second: CCCCCCN(C)N=Nc1ccc(C(N)=O)cc1
The logP of the first is higher: 4.2 for the first, 3.69 for the second.

`CCC(O)CC` and `CCOC(OCC)OCC` are within 0.2 log units of each other in logP: 1.21 for the first, 1.2 for the second.

`NC(=O)CCCCc1cccnc1` and `NCCCc1cccnc1` are within 0.2 log units of each other in logP: 0.4 for the first, 0.44 for the second.

Compared with `O=C(O)COc1ccc(Br)cc1`, `CCOc1ccc(CC(=O)O)cc1` is lower in logP: 2.45 for the first, 1.95 for the second.

`CC(=O)Oc1cccc(O)c1` and `Oc1ccc(O)c(Cl)c1` are within 0.2 log units of each other in logP: 1.23 for the first, 1.4 for the second.

First: CC(C)Oc1ccc([N+](=O)[O-])cc1
Second: O=[N+]([O-])c1ccc(N2CCCCC2)cc1
The logP of the first is lower: 2.8 for the first, 3.26 for the second.

First: CCOC(=O)C(=Cc1cccc(Cl)c1)C(C)=O
Second: CCCCOc1cccc(C=C(C(=O)OCC)C(=O)OCC)c1
The logP of the first is lower: 2.97 for the first, 4.03 for the second.

Compared with `CN(C)N=Nc1cccc2oc3ccccc3c12`, `O=C(O)c1cccc2ccccc12` is lower in logP: 4.55 for the first, 3.1 for the second.

First: COC(=O)c1ccccc1S(I)=C(N(C)C)N(C)C (stereo unspecified)
Second: CCc1cccc(S(I)=C(N(C)C)N(C)C)c1 (stereo unspecified)
The logP of the first is lower: -0.7 for the first, 0.34 for the second.

Going from `C=C(C)C` to `CC(=O)c1ccc(C(C)C)cc1`, the logP rises from 2.34 to 2.98.

`Cc1ccno1` and `CC(=O)c1ccncc1` are within 0.2 log units of each other in logP: 0.45 for the first, 0.48 for the second.

`N#Cc1cccs1` and `N#Cc1ccccc1N` are within 0.2 log units of each other in logP: 1.27 for the first, 1.4 for the second.

Compared with `COC(=O)[C@H]1[C@H]2C[C@H]3c4[nH]c5ccccc5c4CCN3C[C@H]2CC[C@@H]1O`, `NC(Cc1c[nH]c2ccccc12)C(=O)O` (racemic) is lower in logP: 2.54 for the first, -1.05 for the second.

`O=C(NC(CO)C(O)c1ccc([N+](=O)[O-])cc1)C(Cl)(Cl)Cl` (stereo unspecified) and `O=C(O)c1ccc([N+](=O)[O-])cc1Cl` are within 0.2 log units of each other in logP: 1.97 for the first, 2.03 for the second.

Going from `CN(C)c1ccc(C#N)cc1` to `CCN(C)N=Nc1ccc(C(N)=O)cc1`, the logP falls from 2.2 to 1.69.

First: C=C=C
Second: CC1(C)NC(=O)NC1=O
The logP of the first is higher: 1.45 for the first, -0.48 for the second.

First: Brc1ccc2[nH]ccc2c1
Second: O=c1cc[nH]c2cc(C(F)(F)F)ccc12
The logP of the first is higher: 3 for the first, 2.05 for the second.

First: CNC(=O)Oc1ccc(C=O)cc1
Second: CNC(=O)Oc1cc(Cl)ccc1Cl
The logP of the first is lower: 0.99 for the first, 2.44 for the second.

Going from `NC(=S)c1ccccc1N` to `O=C(O)c1ccccc1F`, the logP rises from 0.99 to 1.77.

Compared with `CCC(C)NC(=O)C=Cc1ccccc1` (stereo unspecified), `O=C(O)C=CC(=O)c1ccccc1` is lower in logP: 2.85 for the first, 1.53 for the second.

Going from `COC(=O)NS(=O)(=O)c1ccc(N)cc1` to `O=S(=O)(Nc1ccc(Cl)cc1)C(F)F`, the logP rises from -0.27 to 2.84.

First: Clc1cc(Cl)c(Cl)cc1Cl
Second: COP(=S)(OC)Oc1nc(Cl)c(Cl)cc1Cl
The logP of the first is higher: 4.64 for the first, 4.31 for the second.

First: O=NN(CCCl)C(=O)NC1CCCCCCCCCCC1
Second: Cc1ncc(CNC(=O)N(CCCl)N=O)c(N)n1
The logP of the first is higher: 5.64 for the first, 0.39 for the second.

`c1ccc(C2CNCCO2)cc1` (stereo unspecified) and `O=CNc1ccccc1` are within 0.2 log units of each other in logP: 1.11 for the first, 1.15 for the second.

First: CNN
Second: Cc1cc(NN)ncn1
The logP of the first is lower: -1.05 for the first, 0.62 for the second.

`c1ccc2c(c1)Cc1ccccc1C2` and `O=C(O)c1ccccc1Nc1ccccc1` are within 0.2 log units of each other in logP: 4.25 for the first, 4.36 for the second.

Compared with `C1CNCCN1`, `O=C1CCCCN1` is higher in logP: -1.5 for the first, -0.46 for the second.

Compared with `CCCCCC(=O)OCC(=O)C1(O)CCC2C3CCC4=CC(=O)CCC4(C)C3C(O)CC21C` (stereo unspecified), `C#C[C@]1(O)CC[C@H]2[C@@H]3CCC4=CC(=O)CC[C@]4(C)[C@H]3CC[C@@]21C` is lower in logP: 4.48 for the first, 3.11 for the second.

Going from `CC(=O)NC(C)C(=O)NC(CC(=O)O)C(=O)NC(C)C(=O)NC(C)(C)C` (stereo not drawn) (Ac-Ala-Asp-Ala-NHtBu; configuration not given here) to `CC(=O)N[C@H](C(=O)N[C@@H](C)C(=O)N[C@@H](C)C(N)=O)C(C)C`, the logP falls from -0.74 to -1.4.

Going from `O=C(O)CCCOc1ccc(Cl)cc1Cl` to `COP(=S)(NC(C)C)Oc1ccc(Cl)cc1Cl` (stereo unspecified), the logP rises from 3.53 to 4.3.

Compared with `O=Cc1cccc(C(F)(F)F)c1`, `FC(F)(F)c1ccccc1N=C1NCCN1` is lower in logP: 2.47 for the first, 1.42 for the second.

Going from `CNc1ccccc1[N+](=O)[O-]` to `O=C(O)c1ccc(O)c([N+](=O)[O-])c1`, the logP falls from 2.18 to 1.85.

First: COC(=O)c1ccsc1
Second: CCCNC(C)C(=O)Nc1ccccc1C (stereo unspecified)
The logP of the first is lower: 1.76 for the first, 2.11 for the second.

Going from `N#CC(C#N)=NNc1ccc(C(=O)CCl)cc1` to `COc1ccc(Cl)cc1C(=O)NCCc1ccc(C(=O)O)cc1`, the logP rises from 2.15 to 3.4.

`O=[N+]([O-])c1ccc(C=Cc2nccs2)o1` and `c1ccc2ncccc2c1` are within 0.2 log units of each other in logP: 1.97 for the first, 2.03 for the second.

First: O=C1c2ccccc2C(=O)N1CCCCBr
Second: O=C1C(Cl)=C(Nc2ccccc2)C(=O)c2ccccc21
The logP of the first is lower: 2.96 for the first, 4.22 for the second.

Compared with `Cl[C@H]1[C@H](Cl)[C@@H](Cl)[C@@H](Cl)[C@H](Cl)[C@H]1Cl` (racemic), `CCC(=O)OC1(C(=O)CCl)C(C)CC2C3CCC4=CC(=O)C=CC4(C)C3(Cl)C(O)CC21C` (stereo unspecified) is lower in logP: 3.72 for the first, 3.28 for the second.

First: O=C(O)CNC(=O)c1ccccc1O
Second: O=C(O)Cc1ccccc1Nc1ccc(Cl)c(Cl)c1
The logP of the first is lower: 0.95 for the first, 4.9 for the second.

Going from `COc1cc2c(c(OC)c1OC)-c1ccc(OC)c(=O)cc1C(N)CC2` (stereo unspecified) to `COc1ccc(C(C)c2ccc(OC)cc2)cc1`, the logP rises from 1.1 to 4.52.

First: ClC(Cl)(Cl)C(c1ccccc1)c1ccccc1
Second: c1ccc2nc(-c3ccc4ccccc4n3)ccc2c1
The logP of the first is higher: 4.87 for the first, 4.31 for the second.

First: O=c1[nH]c2ccccc2n1C1CCN(CCCC(c2ccc(F)cc2)c2ccc(F)cc2)CC1
Second: O=C(O)c1ccc2ccccc2c1
The logP of the first is higher: 6.3 for the first, 3.28 for the second.

Going from `O=NN1CCC(Br)C(Br)C1` (stereo unspecified) to `CN1C(=O)CCC1=O`, the logP falls from 1.23 to -0.95.

Compared with `BrC(Br)(Br)Br`, `c1cnccn1` is lower in logP: 3.42 for the first, -0.26 for the second.

First: O=S(=O)(O)c1cc(O)c2ccccc2c1
Second: O=Nc1ccc2ccccc2c1O
The logP of the first is lower: -0.18 for the first, 2.46 for the second.

First: CC1OC(OC2C(O)CC(OC3C(O)CC(OC4CCC5(C)C(CCC6C5CC(O)C5(C)C(C7=CC(=O)OC7)CCC65O)C4)OC3C)OC2C)CC(OC(=O)C2OC(O)CC(O)C2O)C1O (stereo unspecified)
Second: CCCC(=NOCC)C1C(=O)CC(C)(C)OC1=O (stereo unspecified)
The logP of the first is lower: -1.77 for the first, 2.56 for the second.

First: CC(C)c1nnc(S)n(N)c1=O
Second: CCOC(=O)c1cc2ccc(CC)cc2nn1
The logP of the first is lower: 1.22 for the first, 2.31 for the second.

First: Nc1cc[nH]c(=O)n1
Second: CCc1ccc[nH]1
The logP of the first is lower: -1.73 for the first, 1.59 for the second.

Compared with `[N-]=[N+]=Nc1ccccc1`, `CCCCOP(=O)(OCCCC)Oc1ccccc1` is higher in logP: 2.59 for the first, 4.27 for the second.

Compared with `CCCCNC(N)=O`, `CCCCOc1ccc(CC(=O)NO)cc1` is higher in logP: 0.41 for the first, 2.08 for the second.

First: CC1=NCCN1CCO
Second: CCOCCO
The logP of the first is higher: 0.04 for the first, -0.32 for the second.

First: Cc1c(Cl)cc(-c2ccc(=O)[nH]n2)cc1Cl
Second: CC(=O)Nc1ncnc2c1ncn2C
The logP of the first is higher: 3.2 for the first, -0.41 for the second.

First: Nc1c([N+](=O)[O-])cc(C(F)(F)F)cc1[N+](=O)[O-]
Second: CCCCOCC1CO1 (stereo unspecified)
The logP of the first is higher: 2.29 for the first, 0.63 for the second.
